Like-named read-outs stand apart in the source and are kept apart here.
Columns and labels:
Human PI3Kδ (p110δ/p85α) = biological target: T1, Human PI3Kδ (p110δ/p85α) (Homo sapiens, UniProt O00329); experiment: PI3K isoform HTRF enzyme assay, PI3Kδ; format: biochemical; settings: for IC50: 10 μM PIP2, 10 μM ATP, HTRF, read-out: IC50 against PI3Kδ
T1 construct: N-terminal GST tagged recombinant full-length human p110δ; GST (N); host or cells: Baculovirus infected Sf9 cells
Description: (§1) The compound of Example 18, methyl 3-(4-fluorobenzamido)-7,8-dimethoxythieno[3,2-c]quinoline-2-carboxylate, was tested for ability to inhibit the four PI3K isoforms PI3Kα, PI3Kβ, PI3Kδ and PI3Kγ in a homogeneous time-resolved fluorescence (HTRF) enzyme assay.
(§2) The assay relies on the action of the aforesaid kinases on the substrate phosphatidylinositol (4,5)-bisphosphate (PIP2), providing the product phosphatidylinositol (3,4,5)-trisphosphate (PIP3). The PIP3 product is detected by displacement of biotin-PIP3 from an energy transfer complex consisting of Europium labeled anti-GST monoclonal antibody, a GST-tagged pleckstrin homology (PH) domain, biotinylated PIP3 and Streptavidin-Allophycocyanin (APC). Excitation of Europium in the complex results in an energy transfer to the APC and a fluorescent emission at 665 nm. The PIP3 product formed by PI 3-kinase(h) activity displaces biotin-PIP3 from the complex resulting in a loss of energy transfer and thus a decrease in signal. […]
(§3) The enzymes (PI3Kα, PI3Kβ, PI3Kδ or PI3Kγ) were delivered into the following kinase reaction buffer containing 10 μM PIP2 substrate: HEPES 50 mM (pH7.0), NaN3 0.02%, BSA 0.01%, Orthovanadate 0.1 mM, 1% DMSO. […] Homogeneous time-resolved fluorescence (HTRF) was measured (Ex=320 nm, ratio of Em=615 nm and Em=665 nm). […]

[1] = test system: K562 (chronic myelogenous leukemia; leukemia cell line +ve for Bcr-Abl); experiment: Cancer cell assay, K562 tumor cells, viable cells after 96 hours; format: cell-based; settings: Homo sapiens, 96 hours after treatment, called IC50
Description: (§4) The effect of the compounds of the invention on tumor cells was determined by the assay described by Latham et al., Oncogene 12:827-837 (1996). Tumor cells K562 (chronic myelogenous leukemia; leukemia cell line +ve for Bcr-Abl) or DU145 (prostate cancer) were plated in 12-well dishes at a cell density of 2.5×10^4 cells well. The plated cells were treated 24 hours later with a compound of the invention dissolved in DMSO at multiple concentrations ranging from 0.01 μM to 100 μM. The plates were examined 96 hours later under an inverted microscope, Olympus CK-2 using a 10× objective, and compound activity was noted by physical observation. When necessary, the total number of viable cells was determined by trypsinizing the wells and counting the number of viable cells, as determined by trypan blue exclusion, using a hemacytometer.

DU145 (prostate cancer) = experiment: Cancer cell assay, DU145 tumor cells, viable cells after 96 hours; format: cell-based; settings: Homo sapiens, DU-145, 96 hours after treatment, called IC50
Description: as §4

Human PI3Kα (p110α/p85α) = biological target: T2, Human PI3Kα (p110α/p85α) (Homo sapiens, UniProt P42336); experiment: PI3K isoform HTRF enzyme assay, PI3Kα; format: biochemical
T2 construct: N-terminal GST-tagged recombinant full-length human p110α; GST (N); host or cells: Baculovirus infected Sf9 cells
Description: as §1, §2, §3

Human PI3Kβ (p110β/p85α) = biological target: T3, Human PI3Kβ (p110β/p85α) (Homo sapiens, UniProt P42338); experiment: PI3K isoform HTRF enzyme assay, PI3Kβ; format: biochemical
T3 construct: N-terminal 6His-tagged recombinant full-length human p110β; 6His (N); host or cells: Baculovirus infected Sf21 cells
Description: as §1, §2, §3

Human PI3Kγ (p120γ) = biological target: T4, Human PI3Kγ (p120γ) (Homo sapiens, UniProt P48736); experiment: PI3K isoform HTRF enzyme assay, PI3Kγ; format: biochemical
T4 construct: His (N); host or cells: Baculovirus infected insect cells (printed 'SP)', probably a misprint of Sf9)
Description: as §1, §2, §3

T1 sequence (O00329 whole entry, canonical isoform): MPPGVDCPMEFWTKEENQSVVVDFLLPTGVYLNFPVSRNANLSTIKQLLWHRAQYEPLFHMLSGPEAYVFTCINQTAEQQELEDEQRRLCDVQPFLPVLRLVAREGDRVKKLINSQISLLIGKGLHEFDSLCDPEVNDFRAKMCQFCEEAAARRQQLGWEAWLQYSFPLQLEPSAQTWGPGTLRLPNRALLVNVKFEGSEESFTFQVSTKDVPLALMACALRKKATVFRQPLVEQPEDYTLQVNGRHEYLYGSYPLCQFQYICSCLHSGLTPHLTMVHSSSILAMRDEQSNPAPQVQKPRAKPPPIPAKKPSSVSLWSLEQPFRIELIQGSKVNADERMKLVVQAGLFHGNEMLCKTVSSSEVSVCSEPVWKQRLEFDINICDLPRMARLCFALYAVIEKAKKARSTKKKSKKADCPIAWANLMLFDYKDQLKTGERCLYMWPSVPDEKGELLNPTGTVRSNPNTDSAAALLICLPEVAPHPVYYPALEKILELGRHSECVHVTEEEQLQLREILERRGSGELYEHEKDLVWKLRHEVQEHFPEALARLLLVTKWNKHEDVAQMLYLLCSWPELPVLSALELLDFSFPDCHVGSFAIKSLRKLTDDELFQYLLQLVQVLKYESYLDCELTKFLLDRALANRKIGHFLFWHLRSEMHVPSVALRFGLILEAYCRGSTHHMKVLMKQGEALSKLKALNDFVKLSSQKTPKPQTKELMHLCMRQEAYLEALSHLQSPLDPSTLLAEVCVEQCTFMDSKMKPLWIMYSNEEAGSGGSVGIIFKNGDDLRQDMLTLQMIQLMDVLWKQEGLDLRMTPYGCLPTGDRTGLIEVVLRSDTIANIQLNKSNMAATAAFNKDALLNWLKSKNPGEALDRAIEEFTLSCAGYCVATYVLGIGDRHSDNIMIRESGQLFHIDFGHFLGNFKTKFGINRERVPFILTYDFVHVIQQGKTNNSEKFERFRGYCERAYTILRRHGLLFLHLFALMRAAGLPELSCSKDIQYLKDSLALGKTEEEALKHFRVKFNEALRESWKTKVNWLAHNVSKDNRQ
T1 sequence (P27986 whole entry partner, canonical isoform): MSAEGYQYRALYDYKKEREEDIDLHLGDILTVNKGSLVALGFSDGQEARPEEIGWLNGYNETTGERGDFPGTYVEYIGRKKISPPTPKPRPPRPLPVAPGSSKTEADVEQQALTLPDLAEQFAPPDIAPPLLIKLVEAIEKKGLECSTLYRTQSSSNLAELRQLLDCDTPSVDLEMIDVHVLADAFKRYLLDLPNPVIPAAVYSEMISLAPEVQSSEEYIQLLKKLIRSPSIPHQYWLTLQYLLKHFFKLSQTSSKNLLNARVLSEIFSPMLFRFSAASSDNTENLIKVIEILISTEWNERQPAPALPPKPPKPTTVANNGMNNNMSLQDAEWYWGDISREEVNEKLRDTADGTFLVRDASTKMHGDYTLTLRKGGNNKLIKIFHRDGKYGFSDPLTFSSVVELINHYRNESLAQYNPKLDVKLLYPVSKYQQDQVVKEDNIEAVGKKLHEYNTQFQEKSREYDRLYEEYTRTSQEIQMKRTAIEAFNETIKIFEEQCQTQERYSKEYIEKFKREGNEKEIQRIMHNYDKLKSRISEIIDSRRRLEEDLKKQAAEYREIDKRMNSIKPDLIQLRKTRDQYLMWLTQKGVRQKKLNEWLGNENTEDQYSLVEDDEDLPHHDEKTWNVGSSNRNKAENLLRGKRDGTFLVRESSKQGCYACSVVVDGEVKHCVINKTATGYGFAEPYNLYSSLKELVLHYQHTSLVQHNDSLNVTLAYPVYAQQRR
T4 sequence (P48736 whole entry, canonical isoform): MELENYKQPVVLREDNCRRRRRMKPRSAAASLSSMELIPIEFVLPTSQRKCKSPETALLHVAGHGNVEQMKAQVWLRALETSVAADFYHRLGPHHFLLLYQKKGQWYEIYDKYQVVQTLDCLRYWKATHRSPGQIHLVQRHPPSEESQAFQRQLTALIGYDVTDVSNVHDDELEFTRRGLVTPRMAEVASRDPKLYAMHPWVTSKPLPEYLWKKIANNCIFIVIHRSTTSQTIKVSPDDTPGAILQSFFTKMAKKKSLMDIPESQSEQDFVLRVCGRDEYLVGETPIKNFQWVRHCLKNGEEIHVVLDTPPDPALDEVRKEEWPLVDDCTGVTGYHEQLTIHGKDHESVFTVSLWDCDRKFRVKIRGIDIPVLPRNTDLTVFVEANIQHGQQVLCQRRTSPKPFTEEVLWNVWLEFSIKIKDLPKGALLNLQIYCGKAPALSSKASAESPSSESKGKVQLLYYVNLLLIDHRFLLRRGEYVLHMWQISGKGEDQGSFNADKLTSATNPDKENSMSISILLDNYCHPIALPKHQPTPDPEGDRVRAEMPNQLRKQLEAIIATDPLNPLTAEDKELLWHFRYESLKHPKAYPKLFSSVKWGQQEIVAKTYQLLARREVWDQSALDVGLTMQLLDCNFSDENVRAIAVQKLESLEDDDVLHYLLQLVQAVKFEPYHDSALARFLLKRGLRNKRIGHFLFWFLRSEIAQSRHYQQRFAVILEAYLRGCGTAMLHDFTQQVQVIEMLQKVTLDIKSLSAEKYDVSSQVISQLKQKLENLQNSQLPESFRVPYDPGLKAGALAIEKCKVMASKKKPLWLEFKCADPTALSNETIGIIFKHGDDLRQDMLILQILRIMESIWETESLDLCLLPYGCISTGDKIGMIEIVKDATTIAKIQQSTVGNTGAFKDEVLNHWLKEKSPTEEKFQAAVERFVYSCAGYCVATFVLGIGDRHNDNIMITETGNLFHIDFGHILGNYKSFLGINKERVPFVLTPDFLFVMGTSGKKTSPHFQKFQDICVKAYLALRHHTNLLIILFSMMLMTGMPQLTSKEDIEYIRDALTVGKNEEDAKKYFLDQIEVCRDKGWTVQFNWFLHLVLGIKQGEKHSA
T3 sequence (P42338 whole entry, canonical isoform): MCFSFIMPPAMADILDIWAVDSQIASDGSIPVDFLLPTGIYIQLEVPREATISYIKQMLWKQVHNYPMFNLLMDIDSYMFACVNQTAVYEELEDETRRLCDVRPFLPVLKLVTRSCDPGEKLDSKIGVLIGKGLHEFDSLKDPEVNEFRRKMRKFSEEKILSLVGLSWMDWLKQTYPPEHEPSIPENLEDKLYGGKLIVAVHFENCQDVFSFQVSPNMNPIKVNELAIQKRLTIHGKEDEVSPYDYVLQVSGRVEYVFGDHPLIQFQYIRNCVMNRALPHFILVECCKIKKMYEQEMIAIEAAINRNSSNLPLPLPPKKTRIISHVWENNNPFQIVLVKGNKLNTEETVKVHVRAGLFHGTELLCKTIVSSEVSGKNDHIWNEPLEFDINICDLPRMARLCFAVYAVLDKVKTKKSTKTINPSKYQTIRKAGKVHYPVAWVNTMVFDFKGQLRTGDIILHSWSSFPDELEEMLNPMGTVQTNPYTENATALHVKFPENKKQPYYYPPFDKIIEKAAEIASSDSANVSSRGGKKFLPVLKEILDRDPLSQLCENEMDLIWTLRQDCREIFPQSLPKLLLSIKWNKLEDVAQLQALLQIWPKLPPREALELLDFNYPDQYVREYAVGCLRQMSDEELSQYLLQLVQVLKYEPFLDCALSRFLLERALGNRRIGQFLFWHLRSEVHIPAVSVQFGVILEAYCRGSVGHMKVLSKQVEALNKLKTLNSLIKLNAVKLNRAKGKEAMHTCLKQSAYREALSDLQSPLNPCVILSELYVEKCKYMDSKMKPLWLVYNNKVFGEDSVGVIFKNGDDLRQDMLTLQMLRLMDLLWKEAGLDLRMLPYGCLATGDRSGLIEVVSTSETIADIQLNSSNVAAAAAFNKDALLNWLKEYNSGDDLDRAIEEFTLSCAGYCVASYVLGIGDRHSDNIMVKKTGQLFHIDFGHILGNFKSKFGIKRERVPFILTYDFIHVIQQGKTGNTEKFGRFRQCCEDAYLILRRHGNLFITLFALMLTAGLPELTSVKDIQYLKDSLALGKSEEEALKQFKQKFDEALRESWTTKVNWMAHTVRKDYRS
T3 sequence (P27986 whole entry partner, canonical isoform): as the sequence (P27986 whole entry partner, canonical isoform) above
T2 sequence (P42336 whole entry, canonical isoform): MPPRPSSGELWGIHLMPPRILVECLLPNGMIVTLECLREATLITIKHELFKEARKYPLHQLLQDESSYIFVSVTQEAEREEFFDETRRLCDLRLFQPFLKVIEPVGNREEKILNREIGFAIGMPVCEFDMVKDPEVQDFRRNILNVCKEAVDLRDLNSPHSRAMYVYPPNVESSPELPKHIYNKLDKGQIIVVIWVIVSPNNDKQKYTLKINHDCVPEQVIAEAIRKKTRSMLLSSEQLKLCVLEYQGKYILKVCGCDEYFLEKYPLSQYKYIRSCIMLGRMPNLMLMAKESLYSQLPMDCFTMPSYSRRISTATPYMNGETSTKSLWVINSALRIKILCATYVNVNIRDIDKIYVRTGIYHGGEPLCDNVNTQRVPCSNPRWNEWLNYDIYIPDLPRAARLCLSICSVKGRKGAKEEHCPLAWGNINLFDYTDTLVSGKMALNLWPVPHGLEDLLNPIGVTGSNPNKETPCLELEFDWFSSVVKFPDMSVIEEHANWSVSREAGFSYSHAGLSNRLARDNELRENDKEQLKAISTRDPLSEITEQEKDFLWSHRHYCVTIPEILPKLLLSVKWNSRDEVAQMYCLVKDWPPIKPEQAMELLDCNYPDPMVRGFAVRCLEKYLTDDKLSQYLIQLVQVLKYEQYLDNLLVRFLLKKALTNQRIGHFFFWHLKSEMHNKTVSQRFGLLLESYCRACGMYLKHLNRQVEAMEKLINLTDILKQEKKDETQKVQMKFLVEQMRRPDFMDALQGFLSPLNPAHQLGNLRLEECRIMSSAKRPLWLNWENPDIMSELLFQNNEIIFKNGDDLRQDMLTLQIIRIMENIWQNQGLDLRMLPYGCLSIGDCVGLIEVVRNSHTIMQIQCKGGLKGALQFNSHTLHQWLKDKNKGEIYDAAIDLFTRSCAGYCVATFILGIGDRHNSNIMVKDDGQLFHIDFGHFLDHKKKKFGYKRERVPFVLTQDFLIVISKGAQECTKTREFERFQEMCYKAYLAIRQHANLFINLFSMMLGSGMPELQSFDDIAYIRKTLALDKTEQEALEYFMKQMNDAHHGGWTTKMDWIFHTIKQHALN
T2 sequence (P27986 whole entry partner, canonical isoform): as the sequence (P27986 whole entry partner, canonical isoform) above

Row | Structure (SMILES) | IC50 [1] | IC50 (DU145 (prostate cancer)) | melting point | further results
1 | O=c1cc(N2CCOCC2)oc2c(-c3ccccc3)cccc12 [LY294002, 2-(4-morpholinyl)-8-phenyl-chromone, reference compound] |  |  |  | IC50 (Human PI3Kδ (p110δ/p85α)): 0.32 µM
2 | COC(=O)c1sc2c(cnc3cc(OC)c(OC)cc32)c1NC(=O)C(=O)N1CCOCC1 [Example 26, Methyl 7,8-dimethoxy-3-(2-morpholino-2-oxoacetamido)thieno[3,2-c]quinoline-2-carboxylate] | 50 to 100 µM | 25 to 50 µM | 232 to 234 °C | 
3 | COC(=O)c1sc2c(cnc3cc(OC)c(OCCCN4CCOCC4)cc32)c1N [Example 15, Methyl 3-amino-7-methoxy-8-(3-morpholinopropoxy)thieno[3,2-c]quinoline-2-carboxylate] | 10 to 25 µM | 10 to 25 µM | 188 to 190 °C | 
4 | COc1ccc(C(=O)c2sc3c(cnc4cc(F)c(F)cc43)c2N)cc1 [Example 40, (3-Amino-7,8-difluorothieno[3,2-c]quinolin-2-yl)(4-methoxyphenyl)methanone] | 75 µM | 75 µM | 258 to 260 °C | 

The next lines start with results.

Row | IC50 [1] | IC50 (DU145 (prostate cancer)) | melting point | Structure (SMILES) | further results
5 | 0.15 µM | 2.5 µM | 196 to 198 °C | COC(=O)c1sc2c(cnc3cc(OC)c(OC)cc32)c1NC(=O)c1ccc(F)cc1 [Example 18, Methyl 3-(4-fluorobenzamido)-7,8-dimethoxythieno[3,2-c]quinoline-2-carboxylate] | IC50 (Human PI3Kα (p110α/p85α); 10 μM PIP2, 10 μM ATP, HTRF, read-out: IC50 against PI3Kα): 25.3 µM; inhibition of other isoforms of PI3K (PI3Kα), in words (Human PI3Kα (p110α/p85α); Table 2): does not inhibit; IC50 (Human PI3Kβ (p110β/p85α); 10 μM PIP2, 10 μM ATP, HTRF, read-out: IC50 against PI3Kβ): 8.54 µM; inhibition of other isoforms of PI3K (PI3Kβ), in words (Human PI3Kβ (p110β/p85α); Table 2): does not inhibit; IC50 (Human PI3Kγ (p120γ); 10 μM PIP2, 10 μM ATP, HTRF, read-out: IC50 against PI3Kγ): 1.01 µM; IC50 (Human PI3Kγ (p120γ); Table 2, read-out: IC50 against PI3Kγ isoform): 1 µM; selective inhibition of the activity of PI3Kγ, in words (Human PI3Kγ (p120γ); statement in description): selectively inhibits; IC50 (Human PI3Kδ (p110δ/p85α)): 25.7 µM; inhibition of other isoforms of PI3K (PI3Kδ), in words (Human PI3Kδ (p110δ/p85α); Table 2): does not inhibit
6 | 0.15 µM | 5 µM | 276 to 278 °C | Nc1c(C(=O)c2ccc(F)cc2)sc2c1cnc1ccc(F)cc12 [Example 37, (3-Amino-8-fluorothieno[3,2-c]quinolin-2-yl)(4-fluorophenyl)methanone] | 
7 | 1 to 10 µM | > 10 µM | 230 to 234 °C | COc1cc2ncc3c(N)c(C(=O)C(F)(F)F)sc3c2cc1OC [Example 5, 1-(3-Amino-7,8-dimethoxythieno[3,2-c]quinolin-2-yl)-2,2,2-trifluoroethanone] | 
8 | 1 to 5 µM | 1 to 5 µM | 127 to 130 °C | COC(=O)c1sc2c(cnc3cc(OCCCN4CCCCC4)c(OC)cc32)c1N [Example 12, Methyl 3-amino-8-methoxy-7-[3-(piperidin-1-yl)propoxy]thieno[3,2-c]quinoline-2-carboxylate] | 

Source: patent publication US20150065499A1, “3-AMINOTHIENO[3,2-c]QUINOLINE DERIVATIVES, METHODS OF PREPARATION AND USES” (TEMPLE UNIVERSITY - OF THE COMMONWEALTH SYSTEM OF HIGHER …, priority 2012, published 2015)
